Patent publication US6770674B1, “Mollusc repellent” (priority 1998, dated 2004)
Several values for one entry are separate records, joined by “and”; a condition that tells them apart may be missing. Equal entries are not always repeated.

Assays:
Human = settings: oral; cited from earlier work
juvenile Helix aspersa = assay: Attractancy/repellency test, sectorised filter technique of Bowen and Antoine; type: in vivo; design: key to Final Position: R: roof of the container; T: test sector; C: control sector; settings: for % Sector Eaten Control / % Sector Eaten Test: overnight; for repellency to snails (summary in words): arena trials, Helix aspersa
Method: One sector of the filter paper was used as the control and this was moistened with distilled water (1 ml). The other half was moistened with the test compound. […] The paper containing the copper oxalate was moistened with water after the addition of the chemical.
Filter sectors were placed on the lid of a plastic tub. The tub was inverted and was used to make a closed test arena. A small gap of 2 mm was left between the two filter sectors so as to prevent mixing of the test paper with the control. One juvenile Helix aspersa was introduced to the control sector and was allowed to remain in the arena overnight.
Attractancy/repellency was detected by dusting the filter paper with charcoal to reveal the slug trails. The results were quantified by placing a transparent grid over the test sectors and measuring the area covered by snail trails. Any phagostimulatory effect of the test compound was indicated by the consumption of the treated paper.

[1] = test system: slug, Deroceras reticulatum; assay: Protection of wheat and pea seeds compared to BAYSOL and […] (Example 3); type: in vivo
Method: In the following experiment, the efficacy of copper oxalate for the protection of seeds was tested and compared to BAYSOL® and […]®. Seeds were coated with an aqueous suspension of copper oxalate, dried and fed to the slug, Deroceras reticulatum.

snail, Cernuella virgata = assay: Repellency of copper oxalate in a PVA coating (paint) composition on paper towel (Example 4); type: in vivo
Excerpt: In the following experiment, the repellency of copper oxalate was investigated when incorporated in a paint composition. In this example, the carrier used was a common aqueous PVA solution sold in Australia under the brand name of Bond Crete.
Thirty-three 1 liter containers were used each with 3 layers of paper towel covering the bottom of the container. Half of the uppermost surface of each of the paper towels was coated with a solution made from 1 part copper oxalate: 10 parts water: 1 part PVA emulsion. This coating was applied at a rate of about 2 ml per 100 cm2 and allowed to dry. The towel was then moistened with approximately 20 ml of water. One snail, Cernuella virgata, was placed in the centre of the paper towels at the border of the coated and the uncoated half in each container. […] The snails consumed some of the untreated paper. […] After 7 days, the number of snails on the treated and untreated sections of the paper towel were counted, together with the number on the sides and lid of the container.

[2] = test system: slug, Deroceras reticulatum; assay: Protection of coated seeds fed to slugs (Example 2); type: in vivo; settings: for % Seeds damaged Broad beans After 7 days: coated broad beans; for % Seeds damaged Pea seeds After 5 days / % Seeds damaged Pea seeds After 7 days: coated pea seeds; for % Seeds damaged Wheat seeds After 5 days / % Seeds damaged Wheat seeds After 7 days: coated wheat seeds
Excerpt: In the following experiment, various seeds were coated with copper oxalate and ferric potassium oxalate, respectively and fed to the slug, Deroceras reticulatum. The damage to these seeds was compared to damage to control seeds, which were left untreated.

Rat = settings: oral; cited from earlier work
[3] = after 7 days, 33 containers with one snail each, same coating

## [Cu+2].[OH-].[OH-] [Copper hydroxide]
Human
  LD50 (Human): 200 mg/kg

## O=C([O-])C(=O)[O-].[Cu+2] [Copper oxalate, copper oxalate]
Juvenile Helix aspersa; 1.61 mg/cm2, control sector of same arena
  % Sector Eaten Control: 4%
Juvenile Helix aspersa; 1.61 mg/cm2, overnight
  Final Position: R
Juvenile Helix aspersa; 1.61 mg/cm2, test sector
  % Sector Eaten Test: 0%
Juvenile Helix aspersa; 1.61 mg/cm2, trail cover of control sector of same arena
  % Covered Control: 88%
Juvenile Helix aspersa; 1.61 mg/cm2, trail cover of test sector
  % Covered Test: 4.4%
Juvenile Helix aspersa; 2.11 mg/cm2, control sector of same arena
  % Sector Eaten Control: 5%
Juvenile Helix aspersa; 2.11 mg/cm2, overnight
  Final Position: R
Juvenile Helix aspersa; 2.11 mg/cm2, test sector
  % Sector Eaten Test: 0%
Juvenile Helix aspersa; 2.11 mg/cm2, trail cover of control sector of same arena
  % Covered Control: 71.1%
Juvenile Helix aspersa; 2.11 mg/cm2, trail cover of test sector
  % Covered Test: 0%
Juvenile Helix aspersa; 2.43 mg/cm2, control sector of same arena
  % Sector Eaten Control: 2%
Juvenile Helix aspersa; 2.43 mg/cm2, overnight
  Final Position: R
Juvenile Helix aspersa; 2.43 mg/cm2, test sector
  % Sector Eaten Test: 0%
Juvenile Helix aspersa; 2.43 mg/cm2, trail cover of control sector of same arena
  % Covered Control: 68.9%
Juvenile Helix aspersa; 2.43 mg/cm2, trail cover of test sector
  % Covered Test: 0%
Juvenile Helix aspersa; 2.47 mg/cm2, control sector of same arena
  % Sector Eaten Control: 5%
Juvenile Helix aspersa; 2.47 mg/cm2, overnight
  Final Position: R
Juvenile Helix aspersa; 2.47 mg/cm2, test sector
  % Sector Eaten Test: 0%
Juvenile Helix aspersa; 2.47 mg/cm2, trail cover of control sector of same arena
  % Covered Control: 86.7%
Juvenile Helix aspersa; 2.47 mg/cm2, trail cover of test sector
  % Covered Test: 0%
Juvenile Helix aspersa; 3.19 mg/cm2, control sector of same arena
  % Sector Eaten Control: 2%
Juvenile Helix aspersa; 3.19 mg/cm2, overnight
  Final Position: C
Juvenile Helix aspersa; 3.19 mg/cm2, test sector
  % Sector Eaten Test: 0%
Juvenile Helix aspersa; 3.19 mg/cm2, trail cover of control sector of same arena
  % Covered Control: 88%
Juvenile Helix aspersa; 3.19 mg/cm2, trail cover of test sector
  % Covered Test: 0%
Juvenile Helix aspersa; 3.46 mg/cm2, control sector of same arena
  % Sector Eaten Control: 1%
Juvenile Helix aspersa; 3.46 mg/cm2, overnight
  Final Position: R
Juvenile Helix aspersa; 3.46 mg/cm2, test sector
  % Sector Eaten Test: 0%
Juvenile Helix aspersa; 3.46 mg/cm2, trail cover of control sector of same arena
  % Covered Control: 66.7%
Juvenile Helix aspersa; 3.46 mg/cm2, trail cover of test sector
  % Covered Test: 4.4%
Juvenile Helix aspersa
  repellency to snails (summary in words): strongly repelled
[1]; pea seeds, 7 days
  % Seeds damaged Pea seeds After 7 days: 8%
[1]; wheat seeds, 9 days
  % Seeds damaged Wheat seeds After 9 days: 10%
snail, Cernuella virgata; PVA coating composition
  repellency in a coating composition (summary in words): functions effectively as a mollusc repellent
snail, Cernuella virgata; after 7 days, 33 containers with one snail each, coating 1 part copper oxalate: 10 parts water: 1 part PVA emulsion
  No. of snails in area: On lid of container: 1
snail, Cernuella virgata; [3]
  No. of snails in area: On Treated half of paper: 8
  No. of snails in area: On side of container: 1
  No. of snails in area: On untreated half of paper: 23
snail, Cernuella virgata; coated half of paper towel, 7 days
  consumption of the treated paper: No consumption
[2]
  % Seeds damaged Broad beans After 7 days: 5%
  % Seeds damaged Pea seeds After 5 days: 7%
  % Seeds damaged Pea seeds After 7 days: 7%
  % Seeds damaged Wheat seeds After 5 days: 0%
  % Seeds damaged Wheat seeds After 7 days: 2%
[2]; wheat and pea seeds
  slug repellency for seeds (summary in words): very effective slug repellent

## [Cl-].[Cu+2].[Cu+2].[OH-].[OH-].[OH-] [Copper oxychloride]
Rat
  LD50 (Rat): 700 mg/kg

## O=C([O-])C(=O)[O-].O=C([O-])C(=O)[O-].O=C([O-])C(=O)[O-].[Fe+3].[K+].[K+].[K+] [Ferric potassium oxalate, ferric potassium oxalate]
[2]
  % Seeds damaged Broad beans After 7 days: 0%
  % Seeds damaged Pea seeds After 5 days: 15%
  % Seeds damaged Pea seeds After 7 days: 17%
  % Seeds damaged Wheat seeds After 5 days: 3%
  % Seeds damaged Wheat seeds After 7 days: 20%

## Copper acetate
Rat
  LD50 (Rat): 595 mg/kg

## cetyl tertiary ammonium bromide [CeTAB, reference compound]
Juvenile Helix aspersa; 0.2 mg/cm2, control sector of same arena
  % Sector Eaten Control: 4% and 1% and 2%
Juvenile Helix aspersa; 0.2 mg/cm2, overnight
  Final Position: R
Juvenile Helix aspersa; 0.2 mg/cm2, test sector
  % Sector Eaten Test: 0%
Juvenile Helix aspersa; 0.2 mg/cm2, trail cover of control sector of same arena
  % Covered Control: 77.8% and 75.6% and 86.7%
Juvenile Helix aspersa; 2.0 mg/cm2, control sector of same arena
  % Sector Eaten Control: 4% and 5% and 3%
Juvenile Helix aspersa; 2.0 mg/cm2, overnight
  Final Position: R
Juvenile Helix aspersa; 2.0 mg/cm2, test sector
  % Sector Eaten Test: 0%
Juvenile Helix aspersa; 2.0 mg/cm2, trail cover of control sector of same arena
  % Covered Control: 62.2% and 66.6% and 71.1%
Juvenile Helix aspersa; 2.0 mg/cm2, trail cover of test sector
  % Covered Test: 0%
Juvenile Helix aspersa
  repellency to snails (summary in words): act as a repellent
